According to patent US20120178147A1, “MICROBIAL CULTURES AND METHODS FOR ANAEROBIC BIOREMEDIATION” (priority 2009, published 2012):
Values joined by “and” are separate entries in the source; they are usually repeats but may differ in a detail not shown here. Identical values can stand only once. “Also recorded” adds a separate entry of the source.

Key:
[1] = system: DehaloR̂2 cultures; assay: TCC and TCS exposure: TCE reductive dechlorination by DehaloR̂2 culture; assay type: cell-based; details: for TCE completely dechlorinated into ethene in the 22-day period in DehaloR̂2: 1.5 μM TCC (32 μmol TCE) or 35 μM TCS
Experimental: (§1) Cultures. Two cultures were used in this study: 1) Bio-Dechlor INOCULUM, which was obtained from Dr. Frank Loffler's laboratory at Georgia Tech; 2) DehaloR̂2 culture, developed from a sediment microcosm from the Chesapeake Bay “sediment core-D” with three-times continuous transfers described in Example 1.
(§2) TCC and TCS Exposure. For the TCC and TCS test, 1 ml ATCC mixed vitamin solution (Catalog No. MD-VS), 0.25 ml 20 mg/L vitamin B12 solution and 1 ml 500 mM lactate solution were filtered with a 0.2 μm sterile filter and added to 92.5 ml sterile anaerobic media in 160 ml serum bottles, and then 5 ml of culture was transferred into this fresh media. Lactate served as electron donor and carbon source. Fifty μl TCE stock solutions ([…] in methanol) were injected into the media with 500-μl Hamilton air-tight syringe (Reno, Nev.), and the final TCE concentration was 35 μmol per serum bottle. Ten μl TCC or TCS stock solutions in methanol or pure methanol was injected with 10 μl Hamilton air-tight syringe (Reno, Nev.) into the serum bottle. Three concentration levels of TCC or TCS stock solutions were made and listed in Table 8 to make the three final concentration levels of TCC or TCS. The middle concentration level of TCC and TCS in cultures was set according to the solubility of TCC and TCS at 20° C. The highest concentration of TCC and TCS is 10 times the solubility of TCC and TCS at 20° C., and the lowest concentration of TCC and TCS is 10% the solubility of TCC and TCS at 20° C.
(§3) The total aqueous volume in 160-ml serum bottle was 100 ml. Four BDI and four DehaloR̂2 cultures were generated for each concentration of TCC or TCS, and three of them were used for TCE dechlorination analysis and the other one was used for DNA extractions and molecular analysis. The error bars in the figures are the standard deviations for three independent cultures under the same conditions.
The TCC and TCS tests on DehaloR̂2 culture were only dosed with the highest and middle concentrations of TCC and TCS, which are 1.5 μM TCC, 0.15 μM TCC, 35 μM TCS and 3.5 μM TCS, respectively.
(§4) All cultures were stored in the dark and incubated at 30° C.
(§5) Analytical Methods. The concentrations of TCE and their reductive-dechlorinating byproducts, 1,1-DCE, cis-DCE, trans-DCE, VC, and ethene were quantified by gas chromatography with a flame ionization detector (GC-FID).
(§6) 200 μl headspace gas samples were withdrawn from 160 ml serum bottle with 500 μl gas-tight syringes (Hamilton Company, Reno, Nev.) and analyzed by a Shimadzu GC-2010 (Columbia, Md.) with an Rt™-QSPLOT capillary column (30 m×0.32 mm×10 μm, Restek, Bellefonte, Pa.) and a flame ionization detector (FID). The initial oven temperature was 110° C. and was held constant for 5 min. Then the temperature was raised with a gradient of 10° C./min to 150° C., a second gradient at 20° C./min to 200° C., and a third gradient of 5° C./min to 220° C. At the end of this gradient, the oven temperature was held constant at 220° C. for 5 min. The temperature of FID and injector were 240° C. Ultra high purity helium was the carrier gas for the GC. Ultra high purity hydrogen and zero grade air were used for the FID.
(§7) Calibration curves for chlorinated compounds were determined based on the known mass of PCE, TCE, 1,1-DCE, cis-DCE and trans-DCE added to 160 ml serum bottles containing 100 ml of distilled-deionized water and equilibrated at 25° C. overnight. The contents were then analyzed using the Shimadzu GC-FID. Different volumes of 100 ppm and 1000 ppm VC and ethene gas were injected directly into GC using the 500 μl airtight syringe to make their calibration curves. The aqueous concentrations of PCE, TCE and their reaction products were calculated by using reported Henry's constants on the EPA website (Washington and Weaver, 2006)

[2] = system: BDI cultures; assay: TCC and TCS exposure: TCE reductive dechlorination by Bio-Dechlor INOCULUM; assay type: cell-based; details: for TCE completely dechlorinated to ethene in BDI / TCE transformed to VC in BDI: 1.5 μM TCC or 35 μM TCS, by day 27
Experimental: as §1, §2, §3, §4, §5, §6, §7

[3] = highest level: 1.5 μM TCC or 35 μM TCS
[4] = middle level: 0.15 μM TCC or 3.5 μM TCS
[5] = lowest level: 0.015 μM TCC or 0.35 μM TCS

| SMILES | TCE completely dechlorinated into ethene in the 22-day period in DehaloR̂2 [1] | Maximum formation rate VC in DehaloR̂2 (SCD) [1, 3] [μmol vial^−1 day^−1] | Maximum formation rate cis-DCE in DehaloR̂2 (SCD) [1, 3] [μmol vial^−1 day^−1] | Maximum utilization rate TCE in DehaloR̂2 (SCD) [1, 3] [μmol vial^−1 day^−1] | effect on TCE reductive dechlorination in DehaloR̂2 cultures [1, 3] | Maximum formation rate Ethene in DehaloR̂2 (SCD) [1, 4] [μmol vial^−1 day^−1] | Maximum formation rate VC in DehaloR̂2 (SCD) [1, 4] [μmol vial^−1 day^−1] | Maximum formation rate cis-DCE in DehaloR̂2 (SCD) [1, 4] [μmol vial^−1 day^−1] | Maximum utilization rate TCE in DehaloR̂2 (SCD) [1, 4] [μmol vial^−1 day^−1] | Maximum utilization rate VC in DehaloR̂2 (SCD) [1, 4] [μmol vial^−1 day^−1] | Maximum utilization rate cis-DCE in DehaloR̂2 (SCD) [1, 4] [μmol vial^−1 day^−1] | effect on TCE reductive dechlorination in DehaloR̂2 cultures [1, 4] | TCE completely dechlorinated to ethene in BDI [2] | TCE transformed to VC in BDI [2] [%] | Maximum formation rate VC in BDI [2, 3] [μmol vial^−1 day^−1] | Maximum formation rate cis-DCE in BDI [2, 3] [μmol vial^−1 day^−1] | Maximum utilization rate TCE in BDI [2, 3] [μmol vial^−1 day^−1] | Maximum utilization rate cis-DCE in BDI [2, 3] [μmol vial^−1 day^−1] | effect on TCE reductive dechlorination in BDI cultures [2, 3] | Maximum formation rate Ethene in BDI [2, 5] [μmol vial^−1 day^−1] | also measured |
| --- | --- | --- | --- | --- | --- | --- | --- | --- | --- | --- | --- | --- | --- | --- | --- | --- | --- | --- | --- | --- | --- |
| O=C(Nc1ccc(Cl)cc1)Nc1ccc(Cl)c(Cl)c1 [TCC, 3-(4-chlorophenyl)-1-(3,4-dichlorphenyl) urea] | About 46% | 8.12 | 12.83 | 9.54 | significantly inhibited TCE reductive dechlorination | 8.54 | 6.72 | 23.87 | 20.45 | 6.01 | 6.40 | slowed down the TCE reductive dechlorination process | 10% | 90 | 1.65 | 3.94 | 4.22 | 1.29 | significantly inhibited TCE reductive dechlorination | 2.32 | time for complete TCE reductive dechlorination in DehaloR̂2 ([1]; 0.15 μM TCC): approximately 22 days; time for reductive dechlorination of 80% of 33 μmol TCE into ethene in DehaloR̂2 ([1]; 0.15 μM TCC): 11 days; time for reductive dechlorination of TCE to cis-DCE in DehaloR̂2 ([1]; 1.5 μM TCC): about 4 days; Maximum formation rate Ethene in DehaloR̂2 (SCD) ([1]; highest level: 1.5 μM TCC): 1.08 μmol vial^−1 day^−1; Maximum utilization rate VC in DehaloR̂2 (SCD) ([1]; highest level: 1.5 μM TCC): 1.48 μmol vial^−1 day^−1; Maximum utilization rate cis-DCE in DehaloR̂2 (SCD) ([1]; highest level: 1.5 μM TCC): 9.55 μmol vial^−1 day^−1; Maximum formation rate Ethene in BDI ([2]; highest level: 1.5 μM TCC): 0.19 μmol vial^−1 day^−1; Maximum formation rate VC in BDI [2, 5]: 1.11 μmol vial^−1 day^−1; Maximum formation rate cis-DCE in BDI [2, 5]: 7.98 μmol vial^−1 day^−1; Maximum utilization rate TCE in BDI [2, 5]: 9.23 μmol vial^−1 day^−1; Maximum utilization rate VC in BDI [2, 5]: 1.35 μmol vial^−1 day^−1; Maximum utilization rate cis-DCE in BDI [2, 5]: 2.99 μmol vial^−1 day^−1; effect on TCE reductive dechlorination in BDI cultures [2, 5]: had no influence on TCE reductive dechlorination; also recorded: did not show any obvious effect; Maximum formation rate Ethene in BDI [2, 4]: 3.3 μmol vial^−1 day^−1; Maximum formation rate VC in BDI [2, 4]: 1.38 μmol vial^−1 day^−1; Maximum formation rate cis-DCE in BDI [2, 4]: 7.04 μmol vial^−1 day^−1; Maximum utilization rate TCE in BDI [2, 4]: 7.47 μmol vial^−1 day^−1; Maximum utilization rate VC in BDI [2, 4]: 0.33 μmol vial^−1 day^−1; Maximum utilization rate cis-DCE in BDI [2, 4]: 2.6 μmol vial^−1 day^−1; effect on TCE reductive dechlorination in BDI cultures [2, 4]: did not show any obvious effect |
| Oc1cc(Cl)ccc1Oc1ccc(Cl)cc1Cl [TCS, 5-chloro-2-[2,4-dichloro-phenoxy]-phenol] | no ethene was produced | 0.11 | 5.59 | 5.90 | significantly inhibited TCE reductive dechlorination | 3.11 | 8.99 | 8.79 | 13.47 | 1.96 | 9.10 | slowed down the TCE reductive dechlorination process | no ethene was produced | 7 | 1.21 | 6.41 | 8.75 | 0.11 | significantly inhibited TCE reductive dechlorination | 2.61 | time for TCE reductive dechlorination to cis-DCE in DehaloR̂2 ([1]; 3.5 μM TCS): about 4 days; TCE completely dechlorinated into ethene at the 18th day in DehaloR̂2 ([1]; 3.5 μM TCS, 34 μmol TCE): 79%; TCE transformed into VC within 22 days in DehaloR̂2 ([1]; 35 μM TCS): 1%; VC produced in BDI ([2]; 35 μM TCS): 3.6 µmol; TCE not dechlorinated in BDI ([2]; 35 μM TCS, 27-day experiment): approximately 9%; TCE transformed to cis-DCE in BDI ([2]; 35 μM TCS, within 27 days): 84%; Maximum formation rate VC in BDI [2, 5]: 1.14 μmol vial^−1 day^−1; Maximum formation rate cis-DCE in BDI [2, 5]: 6.69 μmol vial^−1 day^−1; Maximum utilization rate TCE in BDI [2, 5]: 9.58 μmol vial^−1 day^−1; Maximum utilization rate VC in BDI [2, 5]: 1.14 μmol vial^−1 day^−1; Maximum utilization rate cis-DCE in BDI [2, 5]: 2.72 μmol vial^−1 day^−1; effect on TCE reductive dechlorination in BDI cultures [2, 5]: had no influence on TCE reductive dechlorination; also recorded: did not show any obvious effect; Maximum formation rate Ethene in BDI [2, 4]: 3.95 μmol vial^−1 day^−1; Maximum formation rate VC in BDI [2, 4]: 1.54 μmol vial^−1 day^−1; Maximum formation rate cis-DCE in BDI [2, 4]: 7.24 μmol vial^−1 day^−1; Maximum utilization rate TCE in BDI [2, 4]: 9.36 μmol vial^−1 day^−1; Maximum utilization rate VC in BDI [2, 4]: 0.62 μmol vial^−1 day^−1; Maximum utilization rate cis-DCE in BDI [2, 4]: 2.39 μmol vial^−1 day^−1 and 2.4 μmol vial^−1 day^−1; effect on TCE reductive dechlorination in BDI cultures [2, 4]: did not show any obvious effect |
